Measurements published in ChEMBL document CHEMBL1201862, “PubChem BioAssay data set” (2004).
Active and inactive are the calls of the source.

Tests used:
Coagulation factor XII = biological target: T1, Coagulation factor XII (Homo sapiens, UniProt P00748); assay: Factor XIIa Dose Response Confirmation from Single Well HTS. [Related pubchem assays (depositor defined):AID701]; type: functional
T1 sequence (P00748 whole entry): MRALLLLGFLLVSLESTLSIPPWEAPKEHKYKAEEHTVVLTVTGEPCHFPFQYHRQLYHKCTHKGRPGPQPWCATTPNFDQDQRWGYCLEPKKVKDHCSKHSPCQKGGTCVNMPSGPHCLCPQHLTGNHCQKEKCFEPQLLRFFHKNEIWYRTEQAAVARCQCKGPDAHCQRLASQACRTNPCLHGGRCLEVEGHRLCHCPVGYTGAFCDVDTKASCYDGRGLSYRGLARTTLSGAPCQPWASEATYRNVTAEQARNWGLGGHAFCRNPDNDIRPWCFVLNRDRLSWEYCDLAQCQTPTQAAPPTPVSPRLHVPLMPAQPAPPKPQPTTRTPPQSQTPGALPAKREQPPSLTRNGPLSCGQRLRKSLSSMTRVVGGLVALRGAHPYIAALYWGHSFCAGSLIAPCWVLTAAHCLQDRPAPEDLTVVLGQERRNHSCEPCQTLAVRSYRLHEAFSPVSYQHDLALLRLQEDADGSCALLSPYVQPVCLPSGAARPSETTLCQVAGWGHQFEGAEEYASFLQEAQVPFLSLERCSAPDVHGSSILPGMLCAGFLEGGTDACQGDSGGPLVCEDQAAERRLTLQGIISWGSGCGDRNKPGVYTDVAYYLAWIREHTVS

Mu-type opioid receptor = Mu-type opioid receptor (Homo sapiens, UniProt P35372); assay: SAR Analysis of Antagonists of the MOR Receptor using an Image-Based Assay - Set 3. [Related pubchem assays (depositor defined):AID1777, AID1785, AID1786, AID1966, AID2133, AID2136, AID2284, AID2285, AID2420]; type: functional
Mu-type opioid receptor, sequence (P35372 whole entry): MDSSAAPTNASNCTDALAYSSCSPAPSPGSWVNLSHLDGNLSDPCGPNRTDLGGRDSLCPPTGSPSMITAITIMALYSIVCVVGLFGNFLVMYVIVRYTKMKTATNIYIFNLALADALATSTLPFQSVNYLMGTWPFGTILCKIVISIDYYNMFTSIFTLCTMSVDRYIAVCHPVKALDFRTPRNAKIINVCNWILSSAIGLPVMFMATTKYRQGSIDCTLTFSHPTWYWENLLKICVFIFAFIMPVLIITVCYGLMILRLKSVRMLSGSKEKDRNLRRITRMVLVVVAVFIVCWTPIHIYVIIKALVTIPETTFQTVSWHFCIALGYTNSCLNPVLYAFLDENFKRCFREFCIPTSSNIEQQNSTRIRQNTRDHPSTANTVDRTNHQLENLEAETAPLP

[1] = biological target: Delta-type opioid receptor (Homo sapiens, UniProt P41143); assay: SAR Analysis of Antagonists of the DOR Receptor using an Image-Based Assay - Set 3. [Related pubchem assays (depositor defined):AID1777, AID1785]; type: functional;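 further: U2OS cells expressing DOR1 and beta-arrestin GFP stimulated with 100 nM SNC80; imaging of GFP-tagged beta-arrestin moving into spots after receptor activation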
Delta-type opioid receptor, sequence (P41143 whole entry): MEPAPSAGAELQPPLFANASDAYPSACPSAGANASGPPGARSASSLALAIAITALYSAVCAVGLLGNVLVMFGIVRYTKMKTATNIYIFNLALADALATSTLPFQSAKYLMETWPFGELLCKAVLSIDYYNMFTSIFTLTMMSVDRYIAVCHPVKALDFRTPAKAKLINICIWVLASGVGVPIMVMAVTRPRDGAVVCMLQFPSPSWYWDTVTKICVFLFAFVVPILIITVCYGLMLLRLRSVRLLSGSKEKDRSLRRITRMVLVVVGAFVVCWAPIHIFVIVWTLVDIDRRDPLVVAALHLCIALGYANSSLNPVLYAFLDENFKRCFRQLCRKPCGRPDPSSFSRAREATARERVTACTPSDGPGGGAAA

[2] = biological target: T2, Kappa-type opioid receptor (Homo sapiens, UniProt P41145); assay: SAR analysis of Antagonists of the Kappa Opioid Receptor (KOR) using an Image-Based Assay - Set 3. [Related pubchem assays (depositor defined):AID1777, AID1785]; type: functional
T2 sequence (P41145 whole entry): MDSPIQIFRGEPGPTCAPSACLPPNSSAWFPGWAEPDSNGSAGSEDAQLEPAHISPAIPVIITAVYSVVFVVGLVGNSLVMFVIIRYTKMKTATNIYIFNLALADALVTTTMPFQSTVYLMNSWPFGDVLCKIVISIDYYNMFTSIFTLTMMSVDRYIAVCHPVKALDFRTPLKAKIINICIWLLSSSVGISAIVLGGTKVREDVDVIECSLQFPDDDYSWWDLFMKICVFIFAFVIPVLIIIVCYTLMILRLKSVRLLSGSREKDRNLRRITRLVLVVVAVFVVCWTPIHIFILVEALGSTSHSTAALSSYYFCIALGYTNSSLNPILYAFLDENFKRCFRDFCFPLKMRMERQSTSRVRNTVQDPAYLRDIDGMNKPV

[3] = biological target: T2, Kappa-type opioid receptor; assay: SAR analysis of small molecule antagonists of the kappa opioid receptor via a luminescent beta-arrestin assay - Set 3. [Related pubchem assays (depositor defined):AID1777, AID1778, AID1785, AID1786, AID1966, AID2133, AID2136, AID2285, AID2495]; type: functional
[4] = biological target: T2, Kappa-type opioid receptor; assay: SAR analysis of small molecule agonists of the kappa opioid receptor via a luminescent beta-arrestin assay - Set 3. [Related pubchem assays (depositor defined):AID1777, AID1785, AID1786, AID1966, AID2133, AID2136, AID2284, AID2500]; type: functional
[5] = biological target: Metabotropic glutamate receptor 2 (Rattus norvegicus, UniProt P31421); assay: mGluR2 modulation, off-target check – cell-based, rat, selectivity assay for mGluR4 modulator project (AID 2188); type: functional
Metabotropic glutamate receptor 2, sequence (P31421 whole entry): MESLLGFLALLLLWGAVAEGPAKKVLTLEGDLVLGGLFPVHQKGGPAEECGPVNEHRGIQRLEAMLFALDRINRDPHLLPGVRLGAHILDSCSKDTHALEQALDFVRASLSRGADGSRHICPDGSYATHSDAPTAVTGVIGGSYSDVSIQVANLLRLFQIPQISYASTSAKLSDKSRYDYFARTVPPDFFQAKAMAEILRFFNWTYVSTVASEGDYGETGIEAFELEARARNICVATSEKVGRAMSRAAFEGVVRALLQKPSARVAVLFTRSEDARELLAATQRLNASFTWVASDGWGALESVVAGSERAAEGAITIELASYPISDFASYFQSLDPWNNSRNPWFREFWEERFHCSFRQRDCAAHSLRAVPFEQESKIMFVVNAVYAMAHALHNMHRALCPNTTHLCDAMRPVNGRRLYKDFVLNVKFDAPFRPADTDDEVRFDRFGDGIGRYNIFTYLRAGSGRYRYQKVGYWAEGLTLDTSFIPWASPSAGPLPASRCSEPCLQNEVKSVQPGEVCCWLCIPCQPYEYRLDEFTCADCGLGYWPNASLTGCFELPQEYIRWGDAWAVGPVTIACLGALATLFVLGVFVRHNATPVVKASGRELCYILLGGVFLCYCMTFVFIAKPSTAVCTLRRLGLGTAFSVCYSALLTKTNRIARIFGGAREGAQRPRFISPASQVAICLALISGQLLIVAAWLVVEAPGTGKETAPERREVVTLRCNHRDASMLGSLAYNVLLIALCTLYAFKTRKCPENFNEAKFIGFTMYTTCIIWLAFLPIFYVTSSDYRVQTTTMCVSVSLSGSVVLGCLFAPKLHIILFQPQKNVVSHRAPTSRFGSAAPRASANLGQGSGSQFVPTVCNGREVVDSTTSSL

[6] = biological target: Metabotropic glutamate receptor 7 (Rattus norvegicus, UniProt P35400); assay: Modulation of the Metabotropic Glutamate Receptor mGluR4: Selectivity at mGluR7. [Related pubchem assays (depositor defined):AID2437, AID2807]; type: functional
Metabotropic glutamate receptor 7, sequence (P35400 whole entry): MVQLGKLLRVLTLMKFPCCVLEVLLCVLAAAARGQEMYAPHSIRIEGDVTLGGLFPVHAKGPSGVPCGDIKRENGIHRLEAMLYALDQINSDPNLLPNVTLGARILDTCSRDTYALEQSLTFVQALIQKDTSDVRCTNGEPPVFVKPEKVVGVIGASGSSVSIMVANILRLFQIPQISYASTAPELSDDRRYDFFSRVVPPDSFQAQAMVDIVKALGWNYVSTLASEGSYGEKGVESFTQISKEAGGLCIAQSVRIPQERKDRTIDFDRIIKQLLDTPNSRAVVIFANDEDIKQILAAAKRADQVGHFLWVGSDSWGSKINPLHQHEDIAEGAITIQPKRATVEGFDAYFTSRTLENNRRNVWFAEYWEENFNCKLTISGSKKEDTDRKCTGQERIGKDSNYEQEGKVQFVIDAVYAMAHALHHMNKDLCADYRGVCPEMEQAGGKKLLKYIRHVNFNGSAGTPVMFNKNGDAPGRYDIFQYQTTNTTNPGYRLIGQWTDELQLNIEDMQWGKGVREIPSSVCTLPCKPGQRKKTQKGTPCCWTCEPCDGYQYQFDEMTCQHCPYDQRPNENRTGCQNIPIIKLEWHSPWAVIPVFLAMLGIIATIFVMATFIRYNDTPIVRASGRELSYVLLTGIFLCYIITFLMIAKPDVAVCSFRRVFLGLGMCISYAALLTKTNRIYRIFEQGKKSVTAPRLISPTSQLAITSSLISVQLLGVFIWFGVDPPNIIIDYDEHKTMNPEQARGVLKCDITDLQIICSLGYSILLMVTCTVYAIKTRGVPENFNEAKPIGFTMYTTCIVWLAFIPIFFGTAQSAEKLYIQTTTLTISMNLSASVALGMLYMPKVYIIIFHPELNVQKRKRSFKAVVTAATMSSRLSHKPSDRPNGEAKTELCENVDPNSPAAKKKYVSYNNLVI

[7] = biological target: Metabotropic glutamate receptor 1 (Rattus norvegicus, UniProt P23385); assay: Modulation of the Metabotropic Glutamate Receptor mGluR4: Selectivity at mGluR1. [Related pubchem assays (depositor defined):AID2437, AID2807]; type: functional
Metabotropic glutamate receptor 1, sequence (P23385 whole entry): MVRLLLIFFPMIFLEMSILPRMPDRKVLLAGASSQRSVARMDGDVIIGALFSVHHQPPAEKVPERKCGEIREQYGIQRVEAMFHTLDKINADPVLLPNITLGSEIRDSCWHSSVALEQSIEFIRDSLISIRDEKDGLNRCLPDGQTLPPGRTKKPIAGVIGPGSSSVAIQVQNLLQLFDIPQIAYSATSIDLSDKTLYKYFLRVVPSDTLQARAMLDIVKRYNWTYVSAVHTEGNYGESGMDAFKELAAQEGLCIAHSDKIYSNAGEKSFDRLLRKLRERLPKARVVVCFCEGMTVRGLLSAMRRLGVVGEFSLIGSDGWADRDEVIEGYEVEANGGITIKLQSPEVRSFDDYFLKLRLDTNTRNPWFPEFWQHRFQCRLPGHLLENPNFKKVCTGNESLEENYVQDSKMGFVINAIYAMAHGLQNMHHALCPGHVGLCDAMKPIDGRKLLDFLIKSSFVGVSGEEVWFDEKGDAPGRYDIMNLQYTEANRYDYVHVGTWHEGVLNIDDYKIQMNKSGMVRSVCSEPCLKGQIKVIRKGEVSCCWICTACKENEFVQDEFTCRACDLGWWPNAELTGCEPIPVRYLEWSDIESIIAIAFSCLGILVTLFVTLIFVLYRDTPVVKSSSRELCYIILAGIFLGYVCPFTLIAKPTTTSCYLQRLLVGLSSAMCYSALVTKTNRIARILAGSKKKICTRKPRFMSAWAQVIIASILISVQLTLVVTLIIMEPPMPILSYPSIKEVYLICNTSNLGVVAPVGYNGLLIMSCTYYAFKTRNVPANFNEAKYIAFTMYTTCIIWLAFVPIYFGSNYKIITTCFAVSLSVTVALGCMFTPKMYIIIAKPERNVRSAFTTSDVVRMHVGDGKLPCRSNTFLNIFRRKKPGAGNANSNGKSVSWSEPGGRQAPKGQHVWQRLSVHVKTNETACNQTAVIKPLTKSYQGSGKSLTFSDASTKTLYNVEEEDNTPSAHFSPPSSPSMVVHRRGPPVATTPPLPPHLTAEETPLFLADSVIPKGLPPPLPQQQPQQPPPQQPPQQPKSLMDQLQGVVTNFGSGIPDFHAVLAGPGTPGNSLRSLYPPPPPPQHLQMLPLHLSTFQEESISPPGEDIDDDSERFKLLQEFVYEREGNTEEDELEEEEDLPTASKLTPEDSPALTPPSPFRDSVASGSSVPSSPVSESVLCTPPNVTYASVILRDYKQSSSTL

[8] = biological target: T3, E3 ubiquitin-protein ligase XIAP (Homo sapiens, UniProt P98170); assay: Counter Screen using XIAP-Bir3 for Chemical Antagonists of Bir1/2 domains of IAP-family anti-apoptotic proteins. [Related pubchem assays (depositor defined):AID1018, AID1449, AID1514, AID1638, AID1749, AID1750, AID488957, AID488963]
T3 sequence (P98170 whole entry): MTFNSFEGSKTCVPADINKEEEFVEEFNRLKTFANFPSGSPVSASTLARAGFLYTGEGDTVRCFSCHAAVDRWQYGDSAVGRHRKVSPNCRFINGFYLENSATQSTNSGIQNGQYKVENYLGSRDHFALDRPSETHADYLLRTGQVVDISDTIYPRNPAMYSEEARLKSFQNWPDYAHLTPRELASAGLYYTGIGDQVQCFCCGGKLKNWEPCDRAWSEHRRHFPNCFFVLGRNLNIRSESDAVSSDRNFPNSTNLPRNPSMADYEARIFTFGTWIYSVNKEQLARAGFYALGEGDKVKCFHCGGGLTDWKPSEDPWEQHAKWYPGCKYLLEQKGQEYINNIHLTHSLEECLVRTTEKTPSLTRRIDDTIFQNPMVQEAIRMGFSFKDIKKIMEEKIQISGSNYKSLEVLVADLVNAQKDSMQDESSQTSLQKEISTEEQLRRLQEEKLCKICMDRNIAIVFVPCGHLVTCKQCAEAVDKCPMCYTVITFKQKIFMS

[9] = biological target: T3, E3 ubiquitin-protein ligase XIAP; assay: small molecules displacing peptide from XIAP – biochemical, IAP family, fluorescence polarization (AID 1018); type: functional

Cc1ccccc1CNCc1cccnc1
IC50 (Coagulation factor XII): > 50 µM (inactive)

CC(C)N(CCNC(=O)c1ccc(CNS(=O)(=O)c2ccc(Br)cc2)cc1)Cc1ccc(Br)cc1
IC50 (Mu-type opioid receptor): > 32 µM (inactive)
IC50 [1]: > 32 µM (inactive)
IC50 [2]: 2.03 µM (active)
IC50 [3]: > 20 µM (inactive)

Clc1ccc(CSc2nnc(-c3ccc(Br)cc3)n2Cc2ccco2)cc1Cl
EC50 [4]: 8 µM (active)

COc1cc(NC(=O)c2ccccn2)ccc1Cl
EC50 [5]: 1.04 µM (inactive)
Activity EC50 [6]: 313 µM
EC50 [7]: 0.943 µM (inactive)

COc1ccc(/C=N/Nc2nc(N3CCCC3)nc(N3CCCC3)n2)cc1
IC50 [8]: > 100 µM (inactive)
IC50 [9]: > 100 µM (not active)
